Test results reported in patent US20160031817A1, “3-PIPERIDONE COMPOUNDS AND THEIR USE AS NEUROKININ-1 (NK1) RECEPTOR ANTAGONISTS” (NANYANG TECHNOLOGICAL UNIVERSITY, priority 2013, published 2016).

melting point: 203 to 204 °C (dec.)
SMILES: Oc1ccc(OC(F)(F)F)cc1C1COC2(CCCNC2c2ccccc2)C1 (racemic) [rac-3, rac-2-(6-phenyl-1-oxa-7-azaspiro[4.5]decan-3-yl)-4-(trifluoromethoxy)phenol]
